# Measurements reported in US20230202981A1, “NOVEL SMALL MOLECULES FOR TARGETED DEGRADATION OF UNTARGETABLE KRAS IN CANCER THERAPY” (Pillai Universal LLC, priority 2020, published 2023).
# How the values were obtained:
# HCC1937 = assay: IC50 of Compound 1 on breast cells (MTT assay); format: cell-based; conditions: Homo sapiens
# From the text: (§1) The activity of Compound 1 on various mutated EGFRs, HER2, and HER4 were examined. MTT assays, flow cytometry, and Western blotting were used to examine the effects of Compound 1 on with different genetic characteristics and relevant molecular mechanisms. Nude mouse xenograft models with cells were used to evaluate the in vim anti-tumor activity of Compound 1. […] Compound 1 blocked EGFR phosphorylation, thereby down regulating downstream PI3/AKT and MAPK/ERK signaling pathways and inducing G0/G1 arrest in different cells. […] Due to compromised homologous recombination (HR) repair, BRCA 1-and BRCA 2-mutated tumours accumulate DNA damage and genomic rearrangements conducive of tumour progression.
# MCF-10A = assay: IC50 of Compound 1 on breast cells (MTT assay); format: cell-based; conditions: Homo sapiens; MCF-10A cells
# From the text: as §1
# RAS = assay: Effect on RAS degradation (GSK3β, Wnt/β-catenin pathway proteins); format: cell-based
# tumor xenograft = assay: Nude mouse xenograft models (EGFR/HER2 study); format: in vivo
# From the text: as §1
smiles,measurement,setting,value
CCCCc1ncc(C(=O)C2CC=C(C(N)=O)N2)cc1C(=O)OCC (stereo not drawn) [Compound 1],IC50,HCC1937,7.52 ± 1.26 µM
same,IC50,MCF-10A,106 ± 3.14 µM
same,Axin level,RAS; control 0.25 ± 0.05,1.96 ± 0.02
same,APC level,RAS; control 0.63 ± 0.03,0.96 ± 0.44
same,GSk3β level,RAS; control 0.69 ± 0.02,1.89 ± 0.23
same,Beta Catenin level,RAS; control 1.32 ± 0.09,0.66 ± 0.09
same,RAS level,RAS; control 1.96 ± 0.06,0.25 ± 0.03
same,RAS degradation,RAS; via GSK3β phosphorylation,degrades the RAS
same,tumor growth,tumor xenograft,inhibited tumor growth
